In general, pKa refers to the negative logarithm of the acid dissociation constant. A low value points to a group that gives up its proton readily. The term logP denotes the decadic logarithm of the partition coefficient of the neutral form, usually between octanol and water. Lower therefore signals lower lipophilicity.

Consider eight compounds from ChEMBL document CHEMBL2151005, “Discovery of 1H-pyrrolo[2,3-c]pyridine-7-carboxamides as novel, allosteric mGluR5 antagonists” (Bioorg Med Chem Lett, 2012).

Data set [1] in a line: physchem.
A short description of data set [2]: physchem. The settings on record: octanol/water.

As to `Cc1cc2cc[nH]c2c(C(=O)Nc2ccccn2)n1`, the pKa in the data set “physchem [1]” came out at 3.5. The compound further came in with a logP in “physchem [2]” of 4.2.
On the same counts, the results for `Cc1cccc(NC(=O)c2nc(C)cc3cc[nH]c23)n1` are 4.5 and 5.3.
On the same counts, the results for `Cc1csc(NC(=O)c2nc(C)cc3cc[nH]c23)n1` are 5.6 and 3.9.
Regarding `Cc1cc2cc[nH]c2c(C(=O)Nc2ccn(C)n2)n1`, the pKa in the data set “physchem [1]” came to 4.1. Also, in the data set “physchem [2]”, the logP came out at 2.9.
Regarding `Cc1c[nH]c(NC(=O)c2nc(C)cc3cc[nH]c23)n1`, in the data set “physchem [1]”, the pKa stood at 7.6. Also, the logP in “physchem [2]” came to 3.1.
On the same counts, the results for `Cc1cccc(NC(=O)c2nc(C)cc3c(-c4ccccn4)c[nH]c23)n1` are 4.5 and 4.7.
In the data set “physchem [1]”, `Cc1cc2c(-c3ccccn3)c[nH]c2c(C(=O)Nc2ccn(C)n2)n1` had a pKa of 4.6. Besides, the logP in “physchem [2]” turned out to be 3.7.
Take `Cc1c[nH]c(NC(=O)c2nc(C)cc3c(-c4ccccn4)c[nH]c23)n1`: the pKa in “physchem [1]” is 6.9. Also, the logP in “physchem [2]” came to 3.3.
